Key:
FXR [1] = molecular target: T1, FXR (Homo sapiens, UniProt Q96RI1); assay: In Vitro FXR Assay (PGL3): luciferase reporter in transfected CV-1 cells; format: cell-based; settings: CV-1 cells transfected with hFXR, hRXR, PGL3-ECRE*6-luc; 18 h incubation; luminescence
T1 construct: expressed in transfected cells; host or cells: CV-1 cells
T1 sequence (Q96RI1 1-486): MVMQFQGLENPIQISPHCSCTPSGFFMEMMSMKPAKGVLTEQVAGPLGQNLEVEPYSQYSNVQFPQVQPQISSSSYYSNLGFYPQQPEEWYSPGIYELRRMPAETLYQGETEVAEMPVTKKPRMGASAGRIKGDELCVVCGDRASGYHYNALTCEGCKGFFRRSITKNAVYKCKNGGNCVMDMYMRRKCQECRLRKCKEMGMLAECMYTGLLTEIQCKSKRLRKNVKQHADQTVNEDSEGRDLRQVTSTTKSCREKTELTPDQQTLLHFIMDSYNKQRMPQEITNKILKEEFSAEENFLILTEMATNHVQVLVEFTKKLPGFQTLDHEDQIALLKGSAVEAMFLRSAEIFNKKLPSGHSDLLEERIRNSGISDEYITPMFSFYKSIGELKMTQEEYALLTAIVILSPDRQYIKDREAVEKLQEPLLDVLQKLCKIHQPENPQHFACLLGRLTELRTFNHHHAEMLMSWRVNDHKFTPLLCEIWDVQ
T1 sequence (P19793 1-462 partner): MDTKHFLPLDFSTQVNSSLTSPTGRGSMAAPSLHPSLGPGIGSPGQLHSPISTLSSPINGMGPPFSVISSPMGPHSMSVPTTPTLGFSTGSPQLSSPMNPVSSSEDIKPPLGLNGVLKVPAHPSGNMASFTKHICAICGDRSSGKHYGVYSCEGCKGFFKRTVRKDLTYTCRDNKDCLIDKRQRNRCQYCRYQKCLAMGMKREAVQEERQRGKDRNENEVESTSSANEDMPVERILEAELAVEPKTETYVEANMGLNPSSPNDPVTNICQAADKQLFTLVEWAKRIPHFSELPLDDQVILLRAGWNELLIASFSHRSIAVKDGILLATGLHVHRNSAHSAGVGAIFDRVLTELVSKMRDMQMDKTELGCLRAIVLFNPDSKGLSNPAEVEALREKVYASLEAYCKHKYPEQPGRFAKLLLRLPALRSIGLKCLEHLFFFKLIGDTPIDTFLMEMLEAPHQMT
Protocol: Example B-1: In Vitro FXR Assay (PGL3)
CV-1 cells were seeded at a density of 2,000,000 cells in a T175 flask with DMEM+10% charcoal double-stripped FBS and incubated at 37° C. in a 5% CO2 for 18 h (O/N).
After 18 h of incubation, the medium in the T175 flask was changed with fresh DMEM+10% charcoal super-stripped serum.
To prepare the transfection reaction mixture, the transfection reagent (X-tremeGENE HP from Roche, Cat #06 366 236 001) was added in to a 1.5 mL microcentrifuge tube labelled “A” at a ratio of 1:3 (DNA in transfection reagent in μL). OptiMEM medium (Life Technologies, Cat #31985-062) was added accordingly to provide a total volume of 1 mL. The transfection reaction mixture was then briefly vortexed and incubated at room temperature for 5 minutes.
In a separate 1.5 mL microcentrifuge tube labelled “B”, 100 μL OptiMEM and plasmids XPD90Gal pCMXhFXRfl, pCMXhRXRfl+PGL3-ECRE*6-luc+CMX-YFP in the ratio 2 μg:2 μg:18 μg:3 μg were added. This microcentrifuge tube “B” was then briefly vortexed and incubated at room temperature for 5 minutes.
The total volume in tube labelled “A” was then transferred in to tube labelled “B.” The mixture was then briefly vortexed and the transfection:DNA complex was then incubated for about 15-20 minutes at room temperature.
Following incubation, the transfection reagent/DNA mixture complex was then added to cells in the T175 flask and the cells were incubated at […] (O/N) at 37° C. in 5% CO2.
In a 96 well plate, a half logarithmic serial dilution was prepared. OptiMEM was used as the diluent. Using any of one of the compounds described herein, a compound stock solution of 10 mM was prepared. An initial 1:100 dilution was made into the first well for a final concentration of 100 μM. The final concentrations in the 96-well plate was prepared by using a multichannel pipette to transfer 5 μL of the diluted compound to 384-well plate in quadruplicate.
Cells in T175 flask were trypsinized and cells were resuspended in 40 mL phenol red free DMEM+10% charcoal super-stripped FBS. Typically, one T175 flask was sufficient to seed two 384 well plates. CV-1 cells were seeded at 45 μL cell suspension/well using a multi-channel pipet or a 384 multidrop dispenser. The cells were then incubated for 18 hrs, overnight.
After removing the plates from the incubator, the medium was flicked out of plate and 384 well plate was turned upside down onto paper towel. The remaining medium was gently tapped out. 15 μL lysis buffer was then added to each well using a multichannel pipet or a 384 well multi-drop dispenser. After incubation for 10 minutes at room temperature on shaker, 30 μL Luciferase buffer was added to each well. Luminescence counts were taken immediately using the Perkin Elmer Envision.
The ability of the compounds disclosed herein to […] FXR activity was quantified and the respective EC50 value was determined. Fex=fexaramine.

FXR [2] = molecular target: T1, FXR; assay: In Vitro FXR Assay (TK): TK-ECRE-luc reporter in transfected CV-1 cells; format: cell-based; settings: CV-1 cells transfected with hFXR, hRXR, 18 h incubation, luminescence
In short: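 CV-1 cells in charcoal-stripped FBS medium were transiently cotransfected with hFXR, hRXR, TK-ECRE-luc and pCMX-YFP plasmids. After 18 h, compounds serially diluted in DMSO were added for 18 h at 37 °C, 5% CO2, then cells were lysed and luminescence read.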

In the case of `COC(=O)/C=C/c1cccc(N(Cc2ccc(-c3ccc(C#N)cc3)cc2)C(=O)C2CCCCC2)c1` [compound 23, (E)-Methyl 3-(3-(N-((4′-cyano-[1,1′-biphenyl]-4-yl)methyl)cyclohexanecarboxamido)phenyl)acrylate], the “Cmpd/Fex (ratio of the EC50 for the test compound relative to the EC50 of the Fexaramine control)” value (FXR [1]) is reported as “+++ (‘+++’ means Cmpd/Fex < 10)” and the EC50 (FXR [2]) is reported as 1000 to 10000 nM.
For `COC(=O)/C=C/c1cccc(N(Cc2ccc(-c3cccc(C#N)c3)cc2)C(=O)C2CCCCC2)c1` [compound 24, (E)-Methyl 3-(3-(N-((3′-cyano-[1,1′-biphenyl]-4-yl)methyl)cyclohexanecarboxamido)phenyl)acrylate], the “Cmpd/Fex (ratio of the EC50 for the test compound relative to the EC50 of the Fexaramine control)” value (FXR [1]) was “+++ (‘+++’ means Cmpd/Fex < 10)” and the EC50 (FXR [2]) was ≤ 1000 nM.
In the case of `COC(=O)/C=C/c1cccc(N(Cc2ccc(-c3ccc(F)cc3)cc2)C(=O)C2CCCCC2)c1` [compound 25, (E)-Methyl 3-(3-(N-((4′-fluoro-[1,1′-biphenyl]-4-yl)methyl)cyclohexanecarboxamido)phenyl)acrylate], the “Cmpd/Fex (ratio of the EC50 for the test compound relative to the EC50 of the Fexaramine control)” value (FXR [1]) is reported as “++ (‘++’ means Cmpd/Fex > 10 & < 100)” and the EC50 (FXR [2]) is reported as 1000 to 10000 nM.
With `COC(=O)/C=C/c1cccc(N(Cc2ccc(-c3cccc(F)c3)cc2)C(=O)C2CCCCC2)c1` [compound 26, (E)-Methyl 3-(3-(N-((3′-fluoro-[1,1′-biphenyl]-4-yl)methyl)cyclohexanecarboxamido)phenyl)acrylate] the “Cmpd/Fex (ratio of the EC50 for the test compound relative to the EC50 of the Fexaramine control)” value (FXR [1]) was “+++ (‘+++’ means Cmpd/Fex < 10)” and the EC50 (FXR [2]) was 1000 to 10000 nM.
With `COC(=O)/C=C/c1cccc(N(Cc2ccc(-c3ccccc3F)cc2)C(=O)C2CCCCC2)c1` [compound 27, (E)-Methyl 3-(3-(N-((2′-fluoro-[1,1′-biphenyl]-4-yl)methyl)cyclohexanecarboxamido)phenyl) acrylate] the “Cmpd/Fex (ratio of the EC50 for the test compound relative to the EC50 of the Fexaramine control)” value (FXR [1]) was “+++ (‘+++’ means Cmpd/Fex < 10)” and the EC50 (FXR [2]) was 1000 to 10000 nM.
With `COC(=O)/C=C/c1cccc(N(Cc2ccc(-c3cnn(C)c3)cc2)C(=O)C2CCCCC2)c1` [compound 28, (E)-Methyl 3-(3-(N-(4-(1-methyl-1H-pyrazol-4-yl)benzyl)cyclohexanecarboxamido)phenyl)acrylate] the “Cmpd/Fex (ratio of the EC50 for the test compound relative to the EC50 of the Fexaramine control)” value (FXR [1]) was “++ (‘++’ means Cmpd/Fex > 10 & < 100)” and the EC50 (FXR [2]) was 1000 to 10000 nM.
With `COC(=O)/C=C/c1cccc(N(Cc2ccc(-c3cccnc3)cc2)C(=O)C2CCCCC2)c1` [compound 29, (E)-Methyl 3-(3-(N-(4-(pyridin-3-yl)benzyl)cyclohexanecarboxamido)phenyl) acrylate] the “Cmpd/Fex (ratio of the EC50 for the test compound relative to the EC50 of the Fexaramine control)” value (FXR [1]) was “++ (‘++’ means Cmpd/Fex > 10 & < 100)” and the EC50 (FXR [2]) was 1000 to 10000 nM.
With `COC(=O)/C=C/c1cccc(N(Cc2ccc(-c3cccc(OC(F)(F)F)c3)cc2)C(=O)C2CCCCC2)c1` [compound 30, (E)-Methyl 3-(3-(N-((3′-(trifluoromethoxy)-[1,1′-biphenyl]-4-yl)methyl)cyclohexanecarboxamido)phenyl)acrylate] the “Cmpd/Fex (ratio of the EC50 for the test compound relative to the EC50 of the Fexaramine control)” value (FXR [1]) was “+ (‘+’ means Cmpd/Fex > 100)” and the EC50 (FXR [2]) was 1000 to 10000 nM.
`COC(=O)/C=C/c1cccc(N(Cc2ccc(-c3c(C)noc3C)cc2)C(=O)C2CCCCC2)c1` [compound 31, (E)-Methyl 3-(3-(N-(4-(3,5-dimethylisoxazol-4-yl)benzyl)cyclohexanecarboxamido)phenyl)acrylate] was tested, and the “Cmpd/Fex (ratio of the EC50 for the test compound relative to the EC50 of the Fexaramine control)” value (FXR [1]) was “+ (‘+’ means Cmpd/Fex > 100)” and the EC50 (FXR [2]) was 1000 to 10000 nM.
In the case of `COC(=O)/C=C/c1cccc(N(Cc2ccc(-c3ccc(OC(C)C)cc3)cc2)C(=O)C2CCCCC2)c1` [compound 32, (E)-Methyl 3-(3-(N-((4′-isopropoxy-[1,1′-biphenyl]-4-yl)methyl)cyclohexanecarboxamido)phenyl)acrylate], the “Cmpd/Fex (ratio of the EC50 for the test compound relative to the EC50 of the Fexaramine control)” value (FXR [1]) is reported as “++ (‘++’ means Cmpd/Fex > 10 & < 100)” and the EC50 (FXR [2]) is reported as 1000 to 10000 nM.
